Reference: patent US8003628B2, “Methods of inhibiting osteoclast activity” (The Trustees of The University of Pennsylvania, priority 1999, dated 2011)

Key:
osteoclast formation = target: osteoclast formation
Description: Cytochemical staining for TRAP is widely used for identifying osteoclasts in vivo and in vitro. Naphthol AS-MX phosphate 5 mg. Sigma, St. Louis, Mo.) is resolved in 0.5 ml of N,N-dimethylformamide (Wako). Thirty milligrams of fast red violet LB salt (Sigma) and 50 ml of 0.1 M sodium acetate buffer (pH 5.0) containing 50 mM sodium tartratet are added to the mixture (the TRAP-staining solution). Cells are fixed with 3.7% (v/v) formaldehyde in Ca^2−- and Mg^2+-free phosphate-buffered saline [PBS(−)] for 10 min. fixed again with ethanol-acetone (50:50, v:v) for 1 min. and incubated with the TRAP-staining solution for 10 min. at room temperature. TRAP-positive osteoclasts appear as red cells. The incubation period longer than 10 min. should be avoided since cells other than osteoclasts become weakly positive with time. After staining, cells are washed with distilled water, and TRAP-positive multinucleated cells having three or more nuclei are counted as osteoclasts under a microscope.

L929 lymphocytes = conditions: Takasaki et al. 1997; cited from earlier work
[1] = tested on: TRANCE-induced marrow cultures; assay: TRANCE-induced marrow cultures; format: cell-based; conditions: reciprocal dose-dependence of WP9QY and TRANCE
Description: This peptide (5-500 μM) was tested for its effect on osteoclast formation using the co-culture system induced by 1,250H2D3 and PGE2. […] There was a reciprocal dose-dependence of WP9QY and TRANCE. Thus, WP9QY is capable of interfering not only with TNF/TNF receptor (1) interaction but also with RANK Ligand/RANK interaction, thereby decreasing the osteoclastogenic potential of this cytokine.

[2] = target: TNF-related activation-induced cytokine (TRANCE); assay: cell-based or functional assay

osteoclast formation in the co-culture system induced by 1,25(OH)2D3 and PGE2 (IC50) [2] [µM]	Compound	IC50 osteoclastogenesis relative to IC50 TNF/TNF receptor (1) interaction (osteoclast formation; 250 μM vs 5 μM) [fold]	effect on osteoclastogenesis (osteoclast formation; co-culture system, peptide 5-500 μM)	IC50 (osteoclast formation; read-out: IC50, inhibition of osteoclastogenesis, co-culture system induced by 1,250H2D3 and PGE2, peptide 5-500 μM) [µM]	antagonism of effects of TNF-binding to TNF-α receptor (1) (L929 lymphocytes)	effect on TRANCE-induced marrow cultures [1]
	CC(C)C[C@@H]1NC(=O)[C@H](Cc2ccc(O)cc2)NC(=O)[C@H](CCC(N)=O)NC(=O)[C@H](CO)NC(=O)[C@H](Cc2c[nH]c3ccccc23)NC(=O)[C@@H](NC(=O)[C@@H](N)Cc2ccc(O)cc2)CSSC[C@@H](C(=O)N[C@@H](Cc2ccc(O)cc2)C(=O)O)NC1=O [WP9QY]	50	dose- and time-dependently inhibited	250	efficiently antagonized	inhibits TRANCE-induced marrow cultures
250	WP9QY (peptide)					
